Test results: article PMC4503722, “Novel Phenotypic Outcomes Identified for a Public Collection of Approved Drugs from a Publicly Accessible Panel of Assays” (PLoS ONE, 2015)
Where two headings read alike, the source gives them in different places.

Tests used:
[1] = test system: DLD-1; experiment: cells; format: cell-based
[2] = test system: endothelial tube formation in co-cultures of ECFCs and ADSCs treated with VEGF; experiment: cells; format: cell-based, human
[3] = test system: HT-29; experiment: cells; format: cell-based
[4] = test system: Colo320; experiment: cells; format: cell-based
[5] = test system: SNU-C1; experiment: cells; format: cell-based
[6] = test system: SW480; experiment: cells; format: cell-based
[7] = test system: ECFC/ADSC co-culture cell nuclei number
[8] = test system: RKO; experiment: cells; format: cell-based
[9] = test system: HCT116; experiment: cells; format: cell-based
[10] = test system: HCT116 cells treated with a GSK3β inhibitor; experiment: cells; format: cell-based
[11] = assay number 23, concentration response
[12] = assay number 28, concentration response
[13] = assay number 27, concentration response
[14] = assay number 30, concentration response
[15] = assay number 24, concentration response
[16] = assay number 29, concentration response
[17] = assay number 25, basal, concentration response
[18] = assay number 26, GSK3b inhibitor pretreated, concentration response
[19] = assay number 26, GSK3b inhibitor pretreated

ClC1=C(Cl)C2(Cl)C(CBr)CC1(Cl)C2(Cl)Cl (centres unmarked) [NCGC00166203-02]
IC50/EC50, Basal_Viability ATP DLD-1 (assay number 23) ([1]; basal): > 20 µM | IC50/EC50, VEGF_ADSC\ECFC Angio CD31 TubeArea (assay number 2) [2]: > 10 µM | IC50/EC50, Basal_Viability ATP HT-29 (assay number 28) ([3]; basal): > 20 µM | IC50/EC50, Basal_Viability ATP Colo 320 (assay number 27) ([4]; basal): > 20 µM | IC50/EC50, Basal_Viability ATP SNU-C1 (assay number 30) ([5]; basal): > 20 µM | IC50/EC50, Basal_Viability ATP SW480 (assay number 24) ([6]; basal): > 20 µM | IC50/EC50, VEGF_ADSC\ECFC Angio Hoechst NucArea (assay number 3) [7]: 9.9697 µM | IC50/EC50, Basal_Viability ATP RKO (assay number 29) ([8]; basal): > 20 µM | IC50/EC50, Basal_Viability ATP HCT116 (assay number 25) ([9]; basal): > 20 µM | IC50/EC50, GSK3b inh pretreated_Viability ATP HCT116 (assay number 26) ([10]; GSK3b inh pretreated): > 20 µM

O=C1c2ccccc2C(=O)C1C(=O)C(c1ccccc1)c1ccccc1 [NCGC00160553-03]
IC50/EC50, Basal_Viability ATP DLD-1 (assay number 23) [1]: 1.326 µM | IC50/EC50, VEGF_ADSC\ECFC Angio CD31 TubeArea (assay number 2) [2]: > 10 µM | IC50/EC50, Basal_Viability ATP HT-29 (assay number 28) [3]: 4.4845 µM | IC50/EC50, Basal_Viability ATP Colo 320 (assay number 27) [4]: 0.6211 µM | IC50/EC50, Basal_Viability ATP SNU-C1 (assay number 30) [5]: 4.0068 µM | IC50/EC50, Basal_Viability ATP SW480 (assay number 24) [6]: 0.5361 µM | IC50/EC50, VEGF_ADSC\ECFC Angio Hoechst NucArea (assay number 3) [7]: > 10 µM | IC50/EC50, Basal_Viability ATP RKO (assay number 29) [8]: 1.5932 µM | IC50/EC50, Basal_Viability ATP HCT116 (assay number 25) [9]: 0.5307 µM | IC50/EC50, GSK3b inh pretreated_Viability ATP HCT116 (assay number 26) [10]: 0.5674 µM

CCCCCCCCCCCCCCCCCC[N+](C)(C)CCC[Si](OC)(OC)OC.[Cl-] [NCGC00166112-02]
Basal_Viability ATP DLD-1 IC50/EC50 [1, 11]: > 20 µM | VEGF_ADSC\ECFC Angio CD31 TubeArea IC50/EC50 [2]: > 10 µM | Basal_Viability ATP HT-29 IC50/EC50 [3, 12]: > 20 µM | Basal_Viability ATP Colo 320 IC50/EC50 [4, 13]: > 20 µM | Basal_Viability ATP SNU-C1 IC50/EC50 [5, 14]: > 20 µM | Basal_Viability ATP SW480 IC50/EC50 [6, 15]: > 20 µM | VEGF_ADSC\ECFC Angio Hoechst NucArea IC50/EC50 [7]: > 10 µM | Basal_Viability ATP RKO IC50/EC50 [8, 16]: > 20 µM | Basal_Viability ATP HCT116 IC50/EC50 [9, 17]: > 20 µM | GSK3b inh pretreated_Viability ATP HCT116 IC50/EC50 [10, 18]: > 20 µM

N/C(=N\N=C\c1ccc(Cl)cc1)N/N=C/c1ccc(Cl)cc1 [NCGC00181026-02]
IC50/EC50, Basal_Viability ATP DLD-1 (assay number 23) ([1]; basal): 0.6538 µM | IC50/EC50, VEGF_ADSC\ECFC Angio CD31 TubeArea (assay number 2) [2]: > 10 µM | IC50/EC50, Basal_Viability ATP HT-29 (assay number 28) ([3]; basal): 0.6811 µM | IC50/EC50, Basal_Viability ATP Colo 320 (assay number 27) ([4]; basal): 0.4583 µM | IC50/EC50, Basal_Viability ATP SNU-C1 (assay number 30) ([5]; basal): 0.2795 µM | IC50/EC50, Basal_Viability ATP SW480 (assay number 24) ([6]; basal): 0.2252 µM | IC50/EC50, VEGF_ADSC\ECFC Angio Hoechst NucArea (assay number 3) [7]: > 10 µM | IC50/EC50, Basal_Viability ATP RKO (assay number 29) ([8]; basal): 0.47 µM | IC50/EC50, Basal_Viability ATP HCT116 (assay number 25) ([9]; basal): 0.394 µM | IC50/EC50, GSK3b inh pretreated_Viability ATP HCT116 (assay number 26) ([10]; GSK3b inh pretreated): 0.3442 µM

O=C(Nc1ccc(Cl)cc1)Nc1ccc(Cl)c(Cl)c1 [NCGC00164034-05]
IC50 ([1]; assay number 23, basal, read-out: Basal_Viability ATP DLD-1 summarized IC50): 323 nM | IC50 ([2]; read-out: VEGF_ADSC\ECFC Angio CD31 TubeArea summarized IC50): > 10 µM | IC50 ([3]; assay number 28, basal, read-out: Basal_Viability ATP HT-29 summarized IC50): 383 nM | IC50 ([4]; assay number 27, basal, read-out: Basal_Viability ATP Colo 320 summarized IC50): 362 nM | IC50 ([5]; assay number 30, basal, read-out: Basal_Viability ATP SNU-C1 summarized IC50): 335 nM | IC50 ([6]; assay number 24, basal, read-out: Basal_Viability ATP SW480 summarized IC50): 897 nM | IC50 ([7]; read-out: VEGF_ADSC\ECFC Angio Hoechst NucArea summarized IC50): > 10 µM | IC50 ([8]; assay number 29, basal, read-out: Basal_Viability ATP RKO summarized IC50): 288 nM | IC50 ([9]; assay number 25, basal, read-out: Basal_Viability ATP HCT116 summarized IC50): 228 nM | IC50 ([10]; assay number 26, GSK3b inhibitor pretreated, read-out: GSK3b inh pretreated_Viability ATP HCT116 summarized IC50): 362 nM

CN1CCN(c2cc3c(nn2)Oc2ccccc2N3C)CC1 [NCGC00160646-02]
Basal_Viability ATP DLD-1 IC50/EC50 ([1]; assay number 23, basal): > 20 µM | VEGF_ADSC\ECFC Angio CD31 TubeArea IC50/EC50 [2]: > 10 µM | Basal_Viability ATP HT-29 IC50/EC50 ([3]; assay number 28, basal): > 20 µM | Basal_Viability ATP Colo 320 IC50/EC50 ([4]; assay number 27, basal): > 20 µM | Basal_Viability ATP SNU-C1 IC50/EC50 ([5]; assay number 30, basal): > 20 µM | Basal_Viability ATP SW480 IC50/EC50 ([6]; assay number 24, basal): > 20 µM | VEGF_ADSC\ECFC Angio Hoechst NucArea IC50/EC50 [7]: > 10 µM | Basal_Viability ATP RKO IC50/EC50 ([8]; assay number 29, basal): > 20 µM | Basal_Viability ATP HCT116 IC50/EC50 ([9]; assay number 25, basal): > 20 µM | GSK3b inh pretreated_Viability ATP HCT116 IC50/EC50 [10, 19]: > 20 µM

C/C(=N\O)[C@@H](C)NCC(C)(C)CN[C@H](C)/C(C)=N/O [NCGC00319018-01]
Basal_Viability ATP DLD-1 IC50/EC50 ([1]; assay number 23, basal): > 20 µM | VEGF_ADSC\ECFC Angio CD31 TubeArea IC50/EC50 [2]: > 10 µM | Basal_Viability ATP HT-29 IC50/EC50 ([3]; assay number 28, basal): > 20 µM | Basal_Viability ATP Colo 320 IC50/EC50 ([4]; assay number 27, basal): > 20 µM | Basal_Viability ATP SNU-C1 IC50/EC50 ([5]; assay number 30, basal): > 20 µM | Basal_Viability ATP SW480 IC50/EC50 ([6]; assay number 24, basal): > 20 µM | VEGF_ADSC\ECFC Angio Hoechst NucArea IC50/EC50 [7]: > 10 µM | Basal_Viability ATP RKO IC50/EC50 ([8]; assay number 29, basal): > 20 µM | Basal_Viability ATP HCT116 IC50/EC50 ([9]; assay number 25, basal): > 20 µM | GSK3b inh pretreated_Viability ATP HCT116 IC50/EC50 [10, 19]: > 20 µM

O=C(OCCO)c1ccccc1O [NCGC00159379-04]
Basal_Viability ATP DLD-1 IC50/EC50 [1, 11]: > 20 µM | VEGF_ADSC\ECFC Angio CD31 TubeArea IC50/EC50 [2]: > 10 µM | Basal_Viability ATP HT-29 IC50/EC50 [3, 12]: > 20 µM | Basal_Viability ATP Colo 320 IC50/EC50 [4, 13]: > 20 µM | Basal_Viability ATP SNU-C1 IC50/EC50 [5, 14]: > 20 µM | Basal_Viability ATP SW480 IC50/EC50 [6, 15]: > 20 µM | VEGF_ADSC\ECFC Angio Hoechst NucArea IC50/EC50 [7]: > 10 µM | Basal_Viability ATP RKO IC50/EC50 [8, 16]: > 20 µM | Basal_Viability ATP HCT116 IC50/EC50 [9, 17]: > 20 µM | GSK3b inh pretreated_Viability ATP HCT116 IC50/EC50 [10, 18]: > 20 µM
